US11421264B2, “Thiol-containing cleave reagents and oxidative wash” (IsoPlexis Corporation, priority 2015, dated 2022)
Structures can show the parent of a compound that is named as a salt.

Legend:
[1] = Cleavage of nucleotide with dithio 3′ protective group and dithio based linker by cleavage agents (RP-HPLC, FIG. 78); settings: RP-HPLC after 10 minutes of incubation with cleave reagent
From the text: In addition to these a variety of suitable cleaving agents can be used such as Bis(2-mercaptoethyl)sulfone (BMS) and N,N′-dimethyl-N,N′-bis(mercaptoacetyl)hydrazine (DMH) (Singh et al., Bioorg. Chem., 22, 109-115 (1994). Reactions can be further catalyzed by inclusion of selenols (Singh et al. Anal Biochem. 1995 Nov. 20; 232(1):86-91 [18]). Borohydrides, such as sodium borohydrides can also be used for this purpose (Stahl et al., Anal. Chem., 1957, 29 (1), pp 154-155 [19]) as well as ascorbic acid (Nardai et al., J. Biol. Chem. 276, 8825-8828 (2001)). In addition, enzymatic methods for cleavage of disulfide bonds ae also well known such as disulfide and thioreductase and can be used with compounds of the present invention (Holmgren et. al., Methods in Enzymology, Volume 252, 1995, Pages 199-208 [21]).

[2] = Cleavage of 3′-(MeSSCH2) capped nucleotide with attached disulfide linker by thiol based cleave reagents (LC-MS); settings: for Compound C [%]: fully cleaved product; for Compound C [%] / Compound B [%] / Compound A [%]: Compound A 0.2 mM, cleave agent 20 mM, buffer 200 mM TE pH 8.5, 10 min @ 65 degree C.; for Compound B [%]: partly cleaved product; for Compound A [%]: starting nucleotide left, relative peak area at 280
Method: The structures of these cleave reagents are shown. See, FIG. 83. The cleavage products were then characterized by liquid chromatography/mass spectrometry ((LC/MS). See, FIG. 84. Compounds A, B and C are shown in FIG. 82A-82C.
This example presents a general method for cleavage studies as presented herein.
A stock solution of 100 mM cleave reagent (see Table-1) was prepared in 1.0 M TE buffer (pH 8.5, Sigma #T9285) in a 15.0 mL centrifuge tube. Then an aliquot of 20 μL (2,000 nmol) of it was diluted with 76.9 uL distilled water in a 1.0 mL centrifuge tube and added with 3.07 μL of 6.5 mM MeSSdUTP-ARA-NH2 (11, 20 nmol) to obtain—100 litL of total volume (Final concentration: 20 mM cleaving agent, 0.2 mM nucleotide, 200 mM TE buffer). The mixture tube was heated at 65 degree C. on a pre-heated thermocycler by shaking gently. The mixture was immediately analyzed by LC-MS after 10 minutes. The % conversion was determined by relative peak areas of the respective peaks extracted at 280 mu wavelength.

Row | Molecule | identified composition of reaction mixture: cleavage of linker and 3′-protective group [1] | Compound C [%] [2] | Compound B [%] [2] | Compound A [%] [2] | cleavage of both the capping group and the linker ([2]; in less than ten (10) minutes at 65° C. in TRIS buffer (pH 8.5))
1 | O[C@H](CS)[C@H](O)CS (racemic) [DTT, dithiothreitol] | full cleavage of both linker and the 3′-protective groups | 100% | 0% | 0% | 
2 | NCCS [Cysteamine] | full cleavage of both linker and the 3′-protective groups | 100% | 0% | 0% | 
3 | O=S(=O)(O)CC(S)CS (centres unmarked) [Dimercaptopropanesulfonate, 2,3-Dimercapto-1-propanesulfonic acid sodium salt] |  | 100% | 0% | 0% | 
4 | OC(=S)CCC(O)=S [Dithiosuccinic acid] |  |  |  |  | complete cleavage was not observed
5 | N[C@@H](CS)C(=O)O [L-Cysteine] | full cleavage of both linker and the 3′-protective groups | 100% | 0% | 0% | 
6 | Dithiosuccinic acid | selective cleavage of 3′-O-protective group | 50% | 50% | 0% | 
